# Results reported in ChEMBL document CHEMBL4507303, “Data for DCP probe TP-004” (2021).
# pKi: −log10 of the molar value.
# Legend:
# [1] = target: Sodium-dependent serotonin transporter (Homo sapiens) (UniProt P31645); conditions: Compound concentration 10.0 uM
# [2] = target: Dual specificity tyrosine-phosphorylation-regulated kinase 1B (Homo sapiens) (UniProt Q9Y463); conditions: Compound concentration 1000.0 nM
# [3] = target: Cyclin-dependent kinase 15 (Homo sapiens) (UniProt Q96Q40); conditions: Compound concentration 1000.0 nM
# [4] = target: Alpha-2C adrenergic receptor (Homo sapiens) (UniProt P18825); conditions: Compound concentration 10.0 uM
# [5] = target: 5-hydroxytryptamine receptor 1A (Homo sapiens) (UniProt P08908); conditions: Compound concentration 10.0 uM
# [6] = target: Mitogen-activated protein kinase 12 (Homo sapiens) (UniProt P53778); conditions: Compound concentration 1000.0 nM
# [7] = target: Serine/threonine-protein kinase STK11 (Homo sapiens) (UniProt Q15831); conditions: Compound concentration 1000.0 nM
# [8] = test system: Epidermal growth factor receptor (Homo sapiens), P00533 [G719S]; conditions: Compound concentration 1000.0 nM
# [9] = test system: Mast/stem cell growth factor receptor Kit (Homo sapiens), P10721 [V559D,V654A]; conditions: Compound concentration 1000.0 nM
# [10] = target: Serine/threonine-protein kinase D3 (Homo sapiens) (UniProt O94806); conditions: Compound concentration 1000.0 nM
# [11] = target: Cyclin-dependent kinase 5 (Homo sapiens) (UniProt Q00535); conditions: Compound concentration 1000.0 nM
# [12] = target: Cyclin-dependent kinase 8 (Homo sapiens) (UniProt P49336); conditions: Compound concentration 1000.0 nM
# Sequence of Cyclin-dependent kinase 8 (Homo sapiens) (P49336 whole entry): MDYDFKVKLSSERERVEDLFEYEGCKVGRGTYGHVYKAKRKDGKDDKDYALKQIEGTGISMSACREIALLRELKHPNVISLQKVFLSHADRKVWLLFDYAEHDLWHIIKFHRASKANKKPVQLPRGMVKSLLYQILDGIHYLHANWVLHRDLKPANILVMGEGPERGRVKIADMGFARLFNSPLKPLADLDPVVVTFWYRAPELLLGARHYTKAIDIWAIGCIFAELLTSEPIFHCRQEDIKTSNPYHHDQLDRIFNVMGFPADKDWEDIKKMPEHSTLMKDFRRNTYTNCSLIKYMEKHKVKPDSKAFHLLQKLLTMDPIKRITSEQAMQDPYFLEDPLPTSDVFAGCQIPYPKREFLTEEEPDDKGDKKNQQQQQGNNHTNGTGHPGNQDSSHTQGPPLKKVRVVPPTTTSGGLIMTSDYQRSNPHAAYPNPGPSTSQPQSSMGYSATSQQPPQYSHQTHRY
# [13] = target: Serine/threonine-protein kinase MARK1 (Homo sapiens) (UniProt Q9P0L2); conditions: Compound concentration 1000.0 nM
# [14] = target: Tyrosine-protein kinase JAK2 (Homo sapiens) (UniProt O60674); conditions: Compound concentration 1000.0 nM
# [15] = target: Ribosomal protein S6 kinase alpha-4 (Homo sapiens) (UniProt O75676); conditions: Compound concentration 1000.0 nM
# [16] = target: Ephrin type-A receptor 8 (Homo sapiens) (UniProt P29322); conditions: Compound concentration 1000.0 nM
# [17] = target: Mitogen-activated protein kinase 1 (Homo sapiens) (UniProt P28482); conditions: Compound concentration 1000.0 nM
# [18] = target: Dual specificity mitogen-activated protein kinase kinase 7 (Homo sapiens) (UniProt O14733); conditions: Compound concentration 1000.0 nM
# [19] = target: Serine/threonine-protein kinase Nek3 (Homo sapiens) (UniProt P51956); conditions: Compound concentration 1000.0 nM
# [20] = target: Calcium/calmodulin-dependent protein kinase type 1G (Homo sapiens) (UniProt Q96NX5); conditions: Compound concentration 1000.0 nM
# [21] = target: Serine/threonine-protein kinase Nek2 (Homo sapiens) (UniProt P51955); conditions: Compound concentration 1000.0 nM
# [22] = target: Cyclin-dependent kinase-like 5 (Homo sapiens) (UniProt O76039); conditions: Compound concentration 1000.0 nM
# [23] = target: Tyrosine-protein kinase receptor Tie-1 (Homo sapiens) (UniProt P35590); conditions: Compound concentration 1000.0 nM
# Sequence of Tyrosine-protein kinase receptor Tie-1 (Homo sapiens) (P35590 whole entry): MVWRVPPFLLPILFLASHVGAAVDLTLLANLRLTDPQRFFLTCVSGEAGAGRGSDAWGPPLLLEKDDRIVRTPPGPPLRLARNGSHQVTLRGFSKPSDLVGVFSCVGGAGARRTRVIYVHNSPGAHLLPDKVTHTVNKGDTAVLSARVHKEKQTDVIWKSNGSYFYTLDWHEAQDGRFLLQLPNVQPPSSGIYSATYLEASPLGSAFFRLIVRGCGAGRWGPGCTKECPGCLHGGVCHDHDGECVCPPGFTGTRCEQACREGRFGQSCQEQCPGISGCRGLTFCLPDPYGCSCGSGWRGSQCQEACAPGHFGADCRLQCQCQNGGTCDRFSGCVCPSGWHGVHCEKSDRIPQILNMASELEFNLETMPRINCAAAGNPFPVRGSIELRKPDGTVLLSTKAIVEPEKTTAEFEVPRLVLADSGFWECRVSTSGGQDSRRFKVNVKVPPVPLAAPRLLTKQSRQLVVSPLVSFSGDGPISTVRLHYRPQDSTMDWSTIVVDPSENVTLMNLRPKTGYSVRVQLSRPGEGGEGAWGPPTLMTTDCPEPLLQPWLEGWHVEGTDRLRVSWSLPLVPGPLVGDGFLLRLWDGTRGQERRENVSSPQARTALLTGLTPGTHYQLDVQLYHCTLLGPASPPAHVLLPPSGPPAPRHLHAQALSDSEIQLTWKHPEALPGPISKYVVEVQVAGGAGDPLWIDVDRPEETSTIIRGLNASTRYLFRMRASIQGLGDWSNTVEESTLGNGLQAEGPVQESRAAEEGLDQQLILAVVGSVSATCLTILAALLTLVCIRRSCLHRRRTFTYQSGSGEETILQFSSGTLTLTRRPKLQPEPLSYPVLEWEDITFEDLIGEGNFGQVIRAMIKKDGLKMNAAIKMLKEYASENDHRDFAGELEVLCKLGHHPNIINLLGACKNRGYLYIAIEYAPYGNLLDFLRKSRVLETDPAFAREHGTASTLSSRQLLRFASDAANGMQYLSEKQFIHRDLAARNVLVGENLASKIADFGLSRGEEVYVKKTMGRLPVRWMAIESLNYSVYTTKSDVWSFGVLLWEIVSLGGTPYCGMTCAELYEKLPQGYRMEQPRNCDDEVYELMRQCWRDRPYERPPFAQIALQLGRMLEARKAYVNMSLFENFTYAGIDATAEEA
# [24] = target: Serine/threonine-protein kinase Sgk2 (Homo sapiens) (UniProt Q9HBY8); conditions: Compound concentration 1000.0 nM
# [25] = test system: Phosphatidylinositol 4,5-bisphosphate 3-kinase catalytic subunit alpha isoform (Homo sapiens), P42336 [E545A]; conditions: Compound concentration 1000.0 nM
# [26] = target: Serine/threonine-protein kinase RIO3 (Homo sapiens) (UniProt O14730); conditions: Compound concentration 1000.0 nM
# [27] = target: SRSF protein kinase 1 (Homo sapiens) (UniProt Q96SB4); conditions: Compound concentration 1000.0 nM
# [28] = test system: Epidermal growth factor receptor (Homo sapiens), P00533 [UNDEFINED MUTATION]; conditions: Compound concentration 1000.0 nM
# [29] = target: Mitogen-activated protein kinase 14 (Homo sapiens) (UniProt Q16539); conditions: Compound concentration 1000.0 nM
# [30] = target: BMP-2-inducible protein kinase (Homo sapiens) (UniProt Q9NSY1); conditions: Compound concentration 1000.0 nM
# [31] = target: Serine/threonine-protein kinase TAO2 (Homo sapiens) (UniProt Q9UL54); conditions: Compound concentration 1000.0 nM
# [32] = test system: Epidermal growth factor receptor (Homo sapiens), P00533 [L858R]; conditions: Compound concentration 1000.0 nM
# [33] = target: Serine/threonine-protein kinase 36 (Homo sapiens) (UniProt Q9NRP7); conditions: Compound concentration 1000.0 nM
# [34] = target: Cyclin-dependent kinase 4 (Homo sapiens) (UniProt P11802); conditions: Compound concentration 1000.0 nM
# Sequence of Cyclin-dependent kinase 4 (Homo sapiens) (P11802 whole entry): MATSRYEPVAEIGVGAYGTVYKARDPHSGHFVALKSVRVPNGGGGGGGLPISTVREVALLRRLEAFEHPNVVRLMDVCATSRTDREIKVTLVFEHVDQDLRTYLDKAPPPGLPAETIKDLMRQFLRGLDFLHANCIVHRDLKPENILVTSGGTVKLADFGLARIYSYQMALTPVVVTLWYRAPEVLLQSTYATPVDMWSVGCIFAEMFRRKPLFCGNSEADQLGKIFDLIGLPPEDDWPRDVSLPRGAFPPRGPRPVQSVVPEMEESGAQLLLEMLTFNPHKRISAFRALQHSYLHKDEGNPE
# [35] = target: Cyclin-dependent kinase 4 (Homo sapiens) (UniProt P11802); conditions: Compound concentration 1000.0 nM; remark: listed apart in the source
# [36] = target: GABA-A receptor; anion channel; test: GPCRScan assay: inhibition of GABAA/BZP; type: protein-complex assay, Rattus norvegicus; design: radioligand conc. used [nm] 0.6 – 4.0, parental cells brain tissue
# [37] = target: Casein kinase I isoform gamma-2 (Homo sapiens) (UniProt P78368); conditions: Compound concentration 1000.0 nM
# [38] = test system: Receptor-type tyrosine-protein kinase FLT3 (Homo sapiens), P36888 [UNDEFINED MUTATION]; conditions: Compound concentration 1000.0 nM
# [39] = target: Serine/threonine-protein kinase WNK1 (Homo sapiens) (UniProt Q9H4A3); conditions: Compound concentration 1000.0 nM
# Sequence of Serine/threonine-protein kinase WNK1 (Homo sapiens) (Q9H4A3 whole entry, looked up): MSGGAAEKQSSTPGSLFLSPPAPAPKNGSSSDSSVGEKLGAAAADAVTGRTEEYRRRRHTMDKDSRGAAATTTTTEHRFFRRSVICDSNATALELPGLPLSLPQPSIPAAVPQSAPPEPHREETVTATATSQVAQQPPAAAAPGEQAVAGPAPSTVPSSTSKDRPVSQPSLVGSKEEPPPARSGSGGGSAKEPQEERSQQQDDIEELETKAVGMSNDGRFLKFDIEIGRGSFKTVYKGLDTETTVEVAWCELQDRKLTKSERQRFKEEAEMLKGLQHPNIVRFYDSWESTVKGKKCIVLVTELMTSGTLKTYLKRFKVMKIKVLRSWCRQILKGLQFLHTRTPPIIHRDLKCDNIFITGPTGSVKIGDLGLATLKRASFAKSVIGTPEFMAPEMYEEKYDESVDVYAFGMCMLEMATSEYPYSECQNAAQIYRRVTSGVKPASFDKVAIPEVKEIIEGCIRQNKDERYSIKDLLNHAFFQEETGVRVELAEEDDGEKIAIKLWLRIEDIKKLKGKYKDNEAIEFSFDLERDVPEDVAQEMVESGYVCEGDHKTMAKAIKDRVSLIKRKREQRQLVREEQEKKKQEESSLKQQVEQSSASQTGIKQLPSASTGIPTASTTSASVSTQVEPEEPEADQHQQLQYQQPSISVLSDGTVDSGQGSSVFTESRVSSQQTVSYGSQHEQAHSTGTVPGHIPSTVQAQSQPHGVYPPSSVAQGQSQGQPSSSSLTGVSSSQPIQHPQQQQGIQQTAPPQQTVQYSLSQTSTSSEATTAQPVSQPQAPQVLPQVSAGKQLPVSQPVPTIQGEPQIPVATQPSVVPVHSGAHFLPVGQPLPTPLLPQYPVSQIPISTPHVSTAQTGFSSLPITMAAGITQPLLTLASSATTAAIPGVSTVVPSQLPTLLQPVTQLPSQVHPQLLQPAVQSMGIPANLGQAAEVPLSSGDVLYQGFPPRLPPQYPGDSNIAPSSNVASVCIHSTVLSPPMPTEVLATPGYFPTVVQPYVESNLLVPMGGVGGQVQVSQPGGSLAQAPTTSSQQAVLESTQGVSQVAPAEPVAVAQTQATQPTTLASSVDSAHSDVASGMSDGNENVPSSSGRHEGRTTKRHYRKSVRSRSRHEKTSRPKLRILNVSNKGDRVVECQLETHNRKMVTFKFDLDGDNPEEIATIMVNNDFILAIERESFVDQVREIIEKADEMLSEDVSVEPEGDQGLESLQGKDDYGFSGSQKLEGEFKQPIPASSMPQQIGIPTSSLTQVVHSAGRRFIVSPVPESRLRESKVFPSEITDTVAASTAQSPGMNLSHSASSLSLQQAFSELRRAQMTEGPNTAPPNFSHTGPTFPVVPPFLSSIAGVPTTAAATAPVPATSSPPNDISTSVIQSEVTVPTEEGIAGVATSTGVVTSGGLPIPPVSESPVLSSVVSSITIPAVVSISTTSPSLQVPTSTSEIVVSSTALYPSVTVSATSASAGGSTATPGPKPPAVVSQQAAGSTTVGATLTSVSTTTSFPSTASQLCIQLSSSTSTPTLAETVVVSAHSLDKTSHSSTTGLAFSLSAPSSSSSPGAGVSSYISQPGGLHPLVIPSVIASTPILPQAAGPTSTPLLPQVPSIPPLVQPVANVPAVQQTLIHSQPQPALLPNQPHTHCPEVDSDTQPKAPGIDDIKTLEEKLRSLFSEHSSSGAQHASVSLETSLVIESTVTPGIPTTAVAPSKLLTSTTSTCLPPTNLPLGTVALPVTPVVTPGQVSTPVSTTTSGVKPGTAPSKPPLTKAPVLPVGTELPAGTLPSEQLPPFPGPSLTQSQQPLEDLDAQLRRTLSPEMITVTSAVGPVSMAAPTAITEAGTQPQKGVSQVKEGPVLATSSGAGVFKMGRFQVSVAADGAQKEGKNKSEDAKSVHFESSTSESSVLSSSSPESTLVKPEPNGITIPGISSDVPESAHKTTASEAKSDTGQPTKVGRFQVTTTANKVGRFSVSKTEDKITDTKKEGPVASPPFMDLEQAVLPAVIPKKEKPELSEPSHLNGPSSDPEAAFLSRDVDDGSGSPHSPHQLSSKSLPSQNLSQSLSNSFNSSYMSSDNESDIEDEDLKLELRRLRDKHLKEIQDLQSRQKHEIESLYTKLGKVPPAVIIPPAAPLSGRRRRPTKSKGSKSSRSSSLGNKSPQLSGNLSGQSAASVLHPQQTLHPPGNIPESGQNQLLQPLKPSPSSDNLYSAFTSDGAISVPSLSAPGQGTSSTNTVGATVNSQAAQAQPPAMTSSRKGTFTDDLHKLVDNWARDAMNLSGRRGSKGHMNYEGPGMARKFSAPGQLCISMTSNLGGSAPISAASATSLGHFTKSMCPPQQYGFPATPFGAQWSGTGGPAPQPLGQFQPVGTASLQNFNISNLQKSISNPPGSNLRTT
# [40] = target: Mitogen-activated protein kinase kinase kinase 5 (Homo sapiens) (UniProt Q99683); conditions: Compound concentration 1000.0 nM
# [41] = target: Serine/threonine-protein kinase SIK2 (Homo sapiens) (UniProt Q9H0K1); conditions: Compound concentration 1000.0 nM
# [42] = target: Mitogen-activated protein kinase kinase kinase 9 (Homo sapiens) (UniProt P80192); conditions: Compound concentration 1000.0 nM
# [43] = target: Serine/threonine-protein kinase NIM1 (Homo sapiens) (UniProt Q8IY84); conditions: Compound concentration 1000.0 nM
# [44] = target: RAC-alpha serine/threonine-protein kinase (Homo sapiens) (UniProt P31749); conditions: Compound concentration 1000.0 nM
# [45] = target: MAP/microtubule affinity-regulating kinase 3 (Homo sapiens) (UniProt P27448); conditions: Compound concentration 1000.0 nM
# Sequence of Sodium-dependent serotonin transporter (Homo sapiens) (P31645 whole entry, looked up): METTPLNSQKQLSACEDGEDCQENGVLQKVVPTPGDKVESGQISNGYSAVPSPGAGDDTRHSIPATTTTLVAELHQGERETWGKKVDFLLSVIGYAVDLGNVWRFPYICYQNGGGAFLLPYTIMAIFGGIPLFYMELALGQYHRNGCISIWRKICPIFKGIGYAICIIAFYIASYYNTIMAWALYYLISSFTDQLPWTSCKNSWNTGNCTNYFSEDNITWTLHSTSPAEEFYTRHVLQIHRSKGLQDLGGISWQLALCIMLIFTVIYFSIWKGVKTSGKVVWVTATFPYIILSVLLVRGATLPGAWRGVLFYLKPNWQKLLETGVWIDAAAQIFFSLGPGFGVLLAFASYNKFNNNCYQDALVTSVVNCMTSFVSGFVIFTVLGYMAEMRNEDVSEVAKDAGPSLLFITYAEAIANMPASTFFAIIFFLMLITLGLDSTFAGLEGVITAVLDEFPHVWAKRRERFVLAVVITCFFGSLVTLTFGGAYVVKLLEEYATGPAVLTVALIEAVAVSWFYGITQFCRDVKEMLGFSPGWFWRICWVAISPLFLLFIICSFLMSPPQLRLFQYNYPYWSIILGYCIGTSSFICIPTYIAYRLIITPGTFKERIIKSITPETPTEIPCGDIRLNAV
compound,measurement,setting,value
Cc1nc(N2CC[C@@H](O)C2)ncc1-c1cc(C(F)(F)F)cc2[nH]ncc12 [TP-004],inhibition,[1],-6.93%
same,residual activity,[2],96%
same,residual activity,[3],81%
same,inhibition,[4],2.18%
same,inhibition,[5],20%
same,residual activity,[6],100%
same,residual activity,[7],100%
same,residual activity,[8],100%
same,residual activity,[9],94%
same,residual activity,[10],100%
same,residual activity,[11],99%
same,residual activity,[12],88%
same,residual activity,[13],74%
same,residual activity,[14],61%
same,residual activity,[15],84%
same,residual activity,[16],61%
same,residual activity,[17],100%
same,residual activity,[18],64%
same,residual activity,[19],60%
same,residual activity,[20],100%
same,residual activity,[21],92%
same,residual activity,[22],77%
same,residual activity,[23],91%
same,residual activity,[24],88%
same,residual activity,[25],97%
same,residual activity,[26],100%
same,residual activity,[27],100%
same,residual activity,[28],64%
same,residual activity,[29],100%
same,residual activity,[30],100%
same,residual activity,[31],100%
same,residual activity,[32],77%
same,residual activity,[33],100%
same,residual activity,[34],88%
same,residual activity,[35],71%
same,pKi,[36],5.34
same,residual activity,[37],100%
same,residual activity,[38],100%
same,residual activity,[39],71%
same,residual activity,[40],100%
same,residual activity,[41],100%
same,residual activity,[42],100%
same,residual activity,[43],71%
same,residual activity,[44],100%
same,residual activity,[45],100%
